Test results as given in US20250098679A1, “HERBICIDAL PYRIDONE DERIVATIVES” (SYNGENTA CROP PROTECTION AG, priority 2021, published 2025).

Legend:
Assay type in all cases: in vivo
Settings in all cases: evaluated after 13 days
[1] = tested on: Ipomoea hederacea (IPOHE); test: Post-emergence Test, Ipomoea hederacea (IPOHE); set-up: key to percentage damage caused to the plant, IPOHE (five-point scale): 5=81-100%, 4=61-80%, 3=41-60%, 2=21-40%, 1=0-20% damage
In short: (§1)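 Percent plant damage was rated 13 days post-application on a 1–5 scale (1=0-20%, 5=81-100%). Application used an aqueous acetone (50:50)/0.5% Tween 20 spray, normally 1000 g/ha, with controlled glasshouse conditions (24/16 °C, 14 h light, 65% humidity).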

[2] = tested on: Echinochloa crus-galli (ECHCG); test: Pre-emergence Test, Echinochloa crus-galli (ECHCG)
[3] = tested on: Echinochloa crus-galli (ECHCG); test: Post-emergence Test, Echinochloa crus-galli (ECHCG); set-up: key to percentage damage caused to the plant, ECHCG (five-point scale): 5=81-100%, 4=61-80%, 3=41-60%, 2=21-40%, 1=0-20% damage
In short: as §1

Zea mays (ZEAMX) [4] = test: Pre-emergence Test, Zea mays (ZEAMX)
[5] = tested on: Amaranthus palmeri (AMAPA); test: Pre-emergence Test, Amaranthus palmeri (AMAPA)
[6] = tested on: Ipomoea hederacea (IPOHE); test: Pre-emergence Test, Ipomoea hederacea (IPOHE)
Setaria faberi (SETFA) [7] = test: Pre-emergence Test, Setaria faberi (SETFA)
Setaria faberi (SETFA) [8] = test: Post-emergence Test, Setaria faberi (SETFA); set-up: key to percentage damage caused to the plant, SETFA (five-point scale): 5=81-100%, 4=61-80%, 3=41-60%, 2=21-40%, 1=0-20% damage
In short: as §1

[9] = tested on: Amaranthus palmeri (AMAPA); test: Post-emergence Test, Amaranthus palmeri (AMAPA); set-up: key: 5=81-100%, 4=61-80%, 3=41-60%, 2=21-40%, 1=0-20% damage
In short: as §1

[10] = tested on: Amaranthus retoflexus (AMARE); test: Pre-emergence Test, Amaranthus retoflexus (AMARE)
Zea mays (ZEAMX) [11] = test: Post-emergence Test, Zea mays (ZEAMX); set-up: key to percentage damage caused to the plant, ZEAMX (five-point scale): 5=81-100%, 4=61-80%, 3=41-60%, 2=21-40%, 1=0-20% damage
In short: as §1

[12] = tested on: Amaranthus retoflexus (AMARE); test: Post-emergence Test, Amaranthus retoflexus (AMARE); set-up: key to percentage damage caused to the plant, AMARE (five-point scale): 5=81-100%, 4=61-80%, 3=41-60%, 2=21-40%, 1=0-20% damage
In short: as §1

Structure (SMILES) | percentage damage caused to the plant, IPOHE (five-point scale) ([1]; 250 g/Ha) | percentage damage caused to the plant, IPOHE (five-point scale) ([1]; 1000 g/ha) | Pre-emergence Test ECHCG, percentage damage caused to the plant (five-point scale) ([2]; 1000 g/ha) | percentage damage caused to the plant, ECHCG (five-point scale) ([3]; 250 g/Ha) | percentage damage caused to the plant, ECHCG (five-point scale) ([3]; 1000 g/ha) | Pre-emergence Test ZEAMX, percentage damage caused to the plant (five-point scale) (Zea mays (ZEAMX) [4]; 1000 g/ha) | Pre-emergence Test AMAPA, percentage damage caused to the plant (five-point scale) ([5]; 1000 g/ha) | Pre-emergence Test IPOHE, percentage damage caused to the plant (five-point scale) ([6]; 1000 g/ha) | Pre-emergence Test SETFA, percentage damage caused to the plant (five-point scale) (Setaria faberi (SETFA) [7]; 1000 g/ha) | percentage damage caused to the plant, SETFA (five-point scale) (Setaria faberi (SETFA) [8]; 250 g/Ha) | percentage damage caused to the plant, SETFA (five-point scale) (Setaria faberi (SETFA) [8]; 1000 g/ha) | percentage damage caused to the plant, AMAPA (five-point scale) ([9]; 250 g/Ha) | percentage damage caused to the plant, AMAPA (five-point scale) ([9]; 1000 g/ha) | Pre-emergence Test AMARE, percentage damage caused to the plant (five-point scale) ([10]; 1000 g/ha) | percentage damage caused to the plant, ZEAMX (five-point scale) (Zea mays (ZEAMX) [11]; 250 g/Ha) | percentage damage caused to the plant, ZEAMX (five-point scale) (Zea mays (ZEAMX) [11]; 1000 g/ha) | percentage damage caused to the plant, AMARE (five-point scale) ([12]; 250 g/Ha) | percentage damage caused to the plant, AMARE (five-point scale) ([12]; 1000 g/ha) | Pre-emergence Test ECHCG, percentage damage caused to the plant (five-point scale) ([2]; 250 g/Ha (*)) | Pre-emergence Test ZEAMX, percentage damage caused to the plant (five-point scale) (Zea mays (ZEAMX) [4]; 250 g/Ha (*)) | further results
Cn1c(Cn2ccc(Cl)n2)cc(=O)c(C(=O)O)c1-c1ccc(Cl)c(Cl)c1 [Compound 34, 6-[(3-chloropyrazol-1-yl)methyl]-2-(3,4-dichlorophenyl)-1-methyl-4-oxo-pyridine-3-carboxylic acid] | 4 (4=61-80%) | 4 (4=61-80%) | 5 (5=81-100%) | 2 (2=21-40%) | 4 (4=61-80%) | 0 | 1 (1=0-20%) | 0 | 5 (5=81-100%) | 3 (3=41-60%) | 4 (4=61-80%) | 1 (1=0-20%) | 3 (3=41-60%) | 0 | 1 (1=0-20%) | 2 (2=21-40%) | 1 (1=0-20%) | 1 (1=0-20%) |  |  | 
CCn1c(Cn2nc(C(F)(F)F)cc2OC)cc(=O)c(C(=O)O)c1-c1ccc(Cl)c(Cl)c1 [Compound 145, 2-(3,4-dichlorophenyl)-1-ethyl-6-[[5-methoxy-3-(trifluoromethyl)pyrazol-1-yl]methyl]-4-oxo-pyridine-3-carboxylic acid] | 3 (3=41-60%) | 3 (3=41-60%) | 4 (4=61-80%) | 3 (3=41-60%) | 4 (4=61-80%) | 0 | 0 | 3 (3=41-60%) | 5 (5=81-100%) | 3 (3=41-60%) | 4 (4=61-80%) | 0 | 3 (3=41-60%) | 1 (1=0-20%) | 1 (1=0-20%) | 3 (3=41-60%) | 1 (1=0-20%) | 3 (3=41-60%) | 2 (2=21-40%) | 0 | Pre-emergence Test AMAPA, percentage damage caused to the plant (five-point scale) ([5]; 250 g/Ha (*)): 0; Pre-emergence Test IPOHE, percentage damage caused to the plant (five-point scale) ([6]; 250 g/Ha (*)): 0; Pre-emergence Test SETFA, percentage damage caused to the plant (five-point scale) (Setaria faberi (SETFA) [7]; 250 g/Ha (*)): 5 (5=81-100%); Pre-emergence Test AMARE, percentage damage caused to the plant (five-point scale) ([10]; 250 g/Ha (*)): 0
CCn1c(Cn2nc(Cl)cc2Cl)cc(=O)c(C(=O)O)c1-c1ccc(Cl)c(Cl)c1 [Compound 134, 2-(3,4-dichlorophenyl)-6-[(3,5-dichloropyrazol-1-yl)methyl]-1-ethyl-4-oxo-pyridine-3-carboxylic acid] | 4 (4=61-80%) | 3 (3=41-60%) | 5 (5=81-100%) | 3 (3=41-60%) | 4 (4=61-80%) | 4 (4=61-80%) | 4 (4=61-80%) | 4 (4=61-80%) | 5 (5=81-100%) | 4 (4=61-80%) | 4 (4=61-80%) | 1 (1=0-20%) | 4 (4=61-80%) | 2 (2=21-40%) | 2 (2=21-40%) | 3 (3=41-60%) | 2 (2=21-40%) | 4 (4=61-80%) | 4 (4=61-80%) | 0 | Pre-emergence Test AMAPA, percentage damage caused to the plant (five-point scale) ([5]; 250 g/Ha (*)): 2 (2=21-40%); Pre-emergence Test IPOHE, percentage damage caused to the plant (five-point scale) ([6]; 250 g/Ha (*)): 1 (1=0-20%); Pre-emergence Test SETFA, percentage damage caused to the plant (five-point scale) (Setaria faberi (SETFA) [7]; 250 g/Ha (*)): 5 (5=81-100%); Pre-emergence Test AMARE, percentage damage caused to the plant (five-point scale) ([10]; 250 g/Ha (*)): 1 (1=0-20%)
CCn1c(Cn2cc(C)cn2)cc(=O)c(C(=O)O)c1-c1ccc(Cl)c(Cl)c1 [Compound 91, 2-(3,4-dichlorophenyl)-1-ethyl-6-[(4-methylpyrazol-1-yl)methyl]-4-oxo-pyridine-3-carboxylic acid] | 0 | 3 (3=41-60%) | 0 | 3 (3=41-60%) | 1 (1=0-20%) | 0 | 1 (1=0-20%) | 0 | 0 | 0 | 1 (1=0-20%) | 1 (1=0-20%) | 4 (4=61-80%) | 1 (1=0-20%) | 1 (1=0-20%) | 1 (1=0-20%) | 1 (1=0-20%) | 2 (2=21-40%) |  |  | 
